Assay results: patent US10105437B2, “Epitopes related to coeliac disease” (BTG International Limited, priority 2004, dated 2018)

test system: PBMC from HLA-DQ2+ coeliac subjects; experiment: Interferon gamma ELISPOT, hordein 20mer first round library after barley challenge; type: cell-based, human; set-up: key to individual peptide showing maximal response in a single individual (asterisk): *: an asterisk indicates the eight individual peptides showing maximal response in a single individual; conditions: not given
Method: (§1) Peptides were initially dissolved in aqueous acetonitrile (50%). Peptides in aqueous acetonitrile were transferred to sterile 96-well plates and diluted in sterile PBS with 1 mM calcium (250 mcg/ml) and then incubated with tTG (25 mcg/ml) (Sigma T5398) for 6 h 37° C. and then stored frozen (−20° C.) until use.
(§2) IFNγ ELISpot assays (Mabtech, Sweden) were performed in 96-well plates (MAIP S-45, Millipore) in which each well contained 25 mcl of peptide solution and 100 mcl of PBMC (2-8×10^5/well) in RPMI containing 10% heat inactivated human AB serum. After development and drying, IFNγ ELISpot plates were assessed using the MAIP automated ELISpot plate counter. Data was then analysed according to a novel algorithm (Expectation Maximization: EM) to define and quantify interferon-gamma responses to 9mer sequences contained within the peptide library (see FIG. 3 and below). 9mer peptides were then rationalised according to an algorithm that assumes redundancy in T-cell recognition, the “IterativeCluster” algorithm (see FIG. 4 and below), by allowing groups of amino acids with similar chemical properties at any one position in the 9mer, or for glutamate to replace glutamine at any position (assuming deamidation may have occurred).
Secalin and hordein 20mer first round peptide libraries were assessed 3 days after completing rye (bread, 100 g/d for 3 days) or barley (boiled, 100 g/d for 3 days) challenge (“day 6” PBMC interferon gamma ELISPOT responses). Although iterative analysis using 2nd and 3rd round peptide libraries to define epitopes has not yet been performed, the 20mers pre-treated with tTG found to induce “potent” responses shared substantial structural similarity to the bioactive peptides identified after wheat challenge. […] The dominant (>70% maximal response) 20mer after rye challenge was usually […] (SEQ ID NO: 1769) (8/14 subjects), or occasionally […] (SEQ ID NO: 1770) (4/14), […] (SEQ ID NO: 1771) (1/14), […] (SEQ ID NO: 1772) (1/14) and/or […] (SEQ ID NO: 1773) (1/14). Additional peptides noted for greater than 40% maximal response in at least 1 subject include:
Typically, the dominant peptides after barley challenge included one of six peptide motifs, or were one of eight other individual 20mers “dominant” in only one of 17 subjects after barley challenge. The six motifs identified:
The barley hordein peptides showing at least 40% maximal peptide response in at least one subject include the following, wherein an asterisk indicates the eight individual peptides showing maximal response in a single individual: […]

| Sequence | individual peptide showing maximal response in a single individual (asterisk) |
| --- | --- |
| PQPYPQQPQPFPQQPPFCQQ (Description of Artificial Sequence: Synthetic gluten peptide) [barley hordein 20mer] | * |
| PYLPEELSPQYQIPTPLQPQ (Description of Artificial Sequence: Synthetic gluten peptide) [barley hordein 20mer] | * |
| QPQQPFPQPQQPIPYQPQQP (Description of Artificial Sequence: Synthetic gluten peptide) [barley hordein 20mer] | * |
| PQQPPFWPQQPFPQQPPFGL (Description of Artificial Sequence: Synthetic gluten peptide) [barley hordein 20mer] | * |

same assay, conditions: 17 subjects

| Sequence | number of subjects with > 70% maximal response | subjects with at least 40% maximal peptide response |
| --- | --- | --- |
| LAAQLPAMCRLEGGGGLLAS (Description of Artificial Sequence: Synthetic gluten peptide) [barley hordein 20mer] | 1 | 1/17 |
| PQPYPQQPQPFPQQPPFCQQ (Description of Artificial Sequence: Synthetic gluten peptide) [barley hordein 20mer] | 1 | 1/17 |
| QIPYVHPSILQQLNPCKVFL (Description of Artificial Sequence: Synthetic gluten peptide) [barley hordein 20mer] | 1 | 1/17 |
| RQLPKYIIPQQPQQPFLLQP (Description of Artificial Sequence: Synthetic gluten peptide) [barley hordein 20mer] | 1 | 1/17 |
| PYLPEELSPQYQIPTPLQPQ (Description of Artificial Sequence: Synthetic gluten peptide) [barley hordein 20mer] | 1 | 1/17 |
| QQPFPLQPQQPFPQPQPFPQ (Description of Artificial Sequence: Synthetic gluten peptide) [barley hordein 20mer] | 0 | 1/17 |
| SPLQPQQPFPQGSEQIIPQQ (Description of Artificial Sequence: Synthetic gluten peptide) [barley hordein 20mer] | 0 | 1/17 |
| QPQPYPQQPQPYPQQPFQPQ (Description of Artificial Sequence: Synthetic gluten peptide) [barley hordein 20mer] | 2 | 7/17 |
| PFPQPPQQKYPEQPQQPFPW (Description of Artificial Sequence: Synthetic gluten peptide) [barley hordein 20mer] | 1 | 1/17 |
| PFPQPQQPFSWQPQQPFLQP (Description of Artificial Sequence: Synthetic gluten peptide) [barley hordein 20mer] | 0 | 1/17 |
| QPFPTPQQFFPYLPQQTFPP (Description of Artificial Sequence: Synthetic gluten peptide) [barley hordein 20mer] | 1 | 4/17 |
| PFPQPQQPFPWQPQQPFPQP (Description of Artificial Sequence: Synthetic gluten peptide) [barley hordein 20mer] | 0 | 6/17 |
| PVLSQQQPCTQDQTPLLQEQ (Description of Artificial Sequence: Synthetic gluten peptide) [barley hordein 20mer] | 1 | 1/17 |
| QQPFPQPQQPIPYQPQQPFN (Description of Artificial Sequence: Synthetic gluten peptide) [barley hordein 20mer] | 1 | 5/17 |
| QQQPFPQQPIPQQPQPYPQQ (Description of Artificial Sequence: Synthetic gluten peptide) [barley hordein 20mer] | 2 | 8/17 |
| QKYPEQPQQPFPWQQPTIQL (Description of Artificial Sequence: Synthetic gluten peptide) [barley hordein 20mer] | 1 | 1/17 |
| YPQQPQPFPQQPIPQQPQPY (Description of Artificial Sequence: Synthetic gluten peptide) [barley hordein 20mer] | 2 | 6/17 |
| FQQPQQSYPVQPQQPFPQPQ (Description of Artificial Sequence: Synthetic gluten peptide) [barley hordein 20mer] | 1 | 3/17 |
| PQPFPQQPIPQQPQPYPQQP (Description of Artificial Sequence: Synthetic gluten peptide) [barley hordein 20mer] | 2 | 6/17 |
| QPQQPFPQPQQPIPYQPQQP (Description of Artificial Sequence: Synthetic gluten peptide) [barley hordein 20mer] | 1 | 4/17 |
| PQQPPFWPQQPFPQQPPFGL (Description of Artificial Sequence: Synthetic gluten peptide) [barley hordein 20mer] | 1 | 1/17 |
| FPQYQIPTPLQPQQPFPQQP (Description of Artificial Sequence: Synthetic gluten peptide) [barley hordein 20mer] | 1 | 2/17 |
| PWQPQQPFPQPQEPIPQQPQ (Description of Artificial Sequence: Synthetic gluten peptide) [barley hordein 20mer] | 1 | 1/17 |
| PQGSEQIIPQQPFPLQPQPF (Description of Artificial Sequence: Synthetic gluten peptide) [barley hordein 20mer] | 1 | 2/17 |

test system: PBMC from HLA-DQ2+ coeliac subjects; experiment: Interferon gamma ELISPOT, secalin 20mer first round library after rye challenge; type: cell-based, human; conditions: 20mers pre-treated with tTG; day 6 PBMC; 14 subjects
Method: as §1, §2
Secalin and hordein 20mer first round peptide libraries were assessed 3 days after completing rye (bread, 100 g/d for 3 days) or barley (boiled, 100 g/d for 3 days) challenge (“day 6” PBMC interferon gamma ELISPOT responses). Although iterative analysis using 2nd and 3rd round peptide libraries to define epitopes has not yet been performed, the 20mers pre-treated with tTG found to induce “potent” responses shared substantial structural similarity to the bioactive peptides identified after wheat challenge. […] The dominant (>70% maximal response) 20mer after rye challenge was usually […] (SEQ ID NO: 1769) (8/14 subjects), or occasionally […] (SEQ ID NO: 1770) (4/14), […] (SEQ ID NO: 1771) (1/14), […] (SEQ ID NO: 1772) (1/14) and/or […] (SEQ ID NO: 1773) (1/14). Additional peptides noted for greater than 40% maximal response in at least 1 subject include: […]

| Sequence | subjects in whom 20mer was dominant (>70% maximal response) after rye challenge |
| --- | --- |
| PQQLFPLPQQPFPQPQQPFP (Description of Artificial Sequence: Synthetic gluten peptide) [rye secalin 20mer] | 8/14 |

same assay, conditions: after rye challenge; 14 subjects

| Sequence | number of subjects with > 70% maximal response | subjects with greater than 40% maximal response |
| --- | --- | --- |
| PQQPFPQQPEQIIPQQPQQP (Description of Artificial Sequence: Synthetic gluten peptide) [rye secalin 20mer] | 3 | 5/14 |
| QQPSIQLSLQQQLNPCKNVL (Description of Artificial Sequence: Synthetic gluten peptide) [rye secalin 20mer] | 1 | 1/14 |
| QQPQQPFPLQPQQPVPQQPQ (Description of Artificial Sequence: Synthetic gluten peptide) [rye secalin 20mer] | 1 | 3/14 |
| SPQQPQLPFPQPQQPFVVVV (Description of Artificial Sequence: Synthetic gluten peptide) [rye secalin 20mer] | 1 | 4/14 |
| QQPFLLQPQQPFSQPQQPFL (Description of Artificial Sequence: Synthetic gluten peptide) [rye secalin 20mer] | 1 | 1/14 |
